In US11629154B2, “Tetrahydropyranooxazine derivatives having selective BACE1 inhibitory activity” (SHIONOGI & CO., LTD., priority 2018, dated 2023):
pIC50: −log10 of the molar value.

Columns and labels:
[1] = biological target: recombinant BACE1 protein (Homo sapiens (Human), UniProt P56817); assay: BACE1 biochemical FRET based assay; conditions: for Selectivity: BACE1 versus BACE2; for pIC50: FRET, pH 5.0
Source text: (1) BACE1 Biochemical FRET Based Assay
(§1) This assay is a Fluorescence Resonance Energy Transfer Assay (FRET) based assay. The substrate for this assay is an APP derived 13 amino acids peptide that contains the ‘Swedish’ Lys-Met/Asn-Leu mutation of the amyloid precursor protein (APP) beta-site secretase cleavage site. This substrate also contains two fluorophores: (7-methoxycoumarin-4-yl) acetic acid (Mca) is a fluorescent donor with excitation wavelength at 320 nm and emission at 405 nm and 2,4-dinitrophenol (Dnp) is a proprietary quencher acceptor. […] Upon cleavage by BACE1, the fluorophore Mca is separated from the quenching group Dnp, restoring the full fluorescence yield of the donor. The increase in fluorescence is linearly related to the rate of proteolysis.
Briefly in a 384-well format recombinant BACE1 protein in a final concentration of 0.04 μg/mL was incubated for 450 minutes at room temperature with […] substrate in incubation buffer (final concentrations: 33.3 mM Citrate buffer pH 5.0, 0.033% PEG, 3% DMSO) in the absence or presence of compound. Next the amount of proteolysis was directly measured by fluorescence measurement at T=0′-120′ and T=450′ (excitation at 320 nm and emission at 405 nm). Results were expressed in RFU (Relative Fluorescence Units), as difference between T450 and Tx (Tx is chosen depending on the reaction speed between 0 and 120 minutes).
(§2) A best-fit curve was fitted by a minimum sum of squares method to the plot of % Controlmin versus compound concentration. From this an IC50 value (inhibitory concentration causing 50% inhibition of activity) can be obtained.
(§3) LC=Median of the low control values
(§4) =Low control: Reaction without enzyme
(§5) HC=Median of the High control values
=High Control: Reaction with enzyme % Effect=100−[(sample−LC)/(HC−LC)*100] % Control=(sample/HC)*100 % Controlmin=(sample−LC)/(HC−LC)*100

[2] = biological target: recombinant BACE2 protein (Homo sapiens (Human), UniProt Q9Y5Z0); assay: BACE2 biochemical FRET based assay; conditions: pH 5.0
Chain of recombinant BACE2 protein (Q9Y5Z0 63-518): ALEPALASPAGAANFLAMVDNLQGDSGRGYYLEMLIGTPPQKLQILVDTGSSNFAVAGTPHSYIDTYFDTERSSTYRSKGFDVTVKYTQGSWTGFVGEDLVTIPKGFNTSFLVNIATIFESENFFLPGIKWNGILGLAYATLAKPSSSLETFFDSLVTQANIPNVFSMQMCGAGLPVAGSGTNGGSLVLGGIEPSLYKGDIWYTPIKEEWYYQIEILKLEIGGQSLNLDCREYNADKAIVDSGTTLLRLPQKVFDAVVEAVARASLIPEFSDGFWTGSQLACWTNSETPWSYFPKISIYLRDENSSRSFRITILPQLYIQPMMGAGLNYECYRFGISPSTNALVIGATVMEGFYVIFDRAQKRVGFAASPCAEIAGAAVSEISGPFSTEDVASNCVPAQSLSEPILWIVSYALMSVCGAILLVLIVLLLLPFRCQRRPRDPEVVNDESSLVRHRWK
Source text: (2) BACE2 Biochemical FRET Based Assay
as §1, with “assay” for “assay is an APP derived 13 amino acids peptide that”, “beta-secretase” for “beta-site secretase”, “the beta-secretase,” for “BACE1,”
Briefly in a 384-well format recombinant BACE2 protein in a final concentration of 0.4 μg/mL was incubated for 450 minutes at room temperature with 10 μM substrate in incubation buffer (final concentrations: 33.3 mM Citrate buffer pH 5.0, 0.033% PEG, 2% DMSO) in the absence or presence of compound. Next the amount of proteolysis was directly measured by fluorescence measurement at T=0 and T=450 (excitation at 320 nm and emission at 405 nm). Results were expressed in RFU (Relative Fluorescence Units), as difference between T450 and TO.
as §2, §3, §4, §5

Chain of recombinant BACE1 protein (P56817 46-501): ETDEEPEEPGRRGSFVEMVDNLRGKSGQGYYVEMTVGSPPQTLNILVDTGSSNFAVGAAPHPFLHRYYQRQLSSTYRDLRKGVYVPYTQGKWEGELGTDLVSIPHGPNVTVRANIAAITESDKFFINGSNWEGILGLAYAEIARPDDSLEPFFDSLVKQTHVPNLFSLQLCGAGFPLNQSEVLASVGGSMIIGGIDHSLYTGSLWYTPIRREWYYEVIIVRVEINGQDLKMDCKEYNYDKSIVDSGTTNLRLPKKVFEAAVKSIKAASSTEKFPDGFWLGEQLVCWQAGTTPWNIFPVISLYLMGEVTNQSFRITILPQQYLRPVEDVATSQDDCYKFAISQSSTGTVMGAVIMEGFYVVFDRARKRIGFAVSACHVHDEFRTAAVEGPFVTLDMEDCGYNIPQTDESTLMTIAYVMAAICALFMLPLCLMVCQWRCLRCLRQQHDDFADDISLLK

Row | Selectivity [1] | pIC50 [1] | pIC50 [2] | Structure (SMILES)
1 | 44.7 | 7.81 | 6.16 | CC[C@@H]1OCC[C@H]2OC(N)=N[C@](CF)(c3cc(NC(=O)c4cnc(OCF)cn4)ccc3F)[C@@H]12 [Compound I-009]
2 | 42.7 | 7.97 | 6.34 | NC1=N[C@](CF)(c2cc(NC(=O)c3cnc(OCF)cn3)ccc2F)[C@H]2[C@H](CF)OCC[C@H]2O1 [Compound I-010]
3 | 31.6 | 7.88 | 6.38 | C[C@@H]1OCC[C@H]2OC(N)=N[C@](CF)(c3cc(NC(=O)c4cnc(OCF)cn4)ccc3F)[C@@H]12 [Compound I-011]
4 | 53.7 | 7.76 | 6.03 | C[C@@H]1C[C@H]2OC(N)=N[C@](CF)(c3cc(NC(=O)c4cnc(OCF)cn4)cc(F)c3F)[C@H]2CO1 [Compound I-061]
5 | 24.5 | 7.95 | 6.56 | COc1cnc(C(=O)Nc2ccc(Cl)c([C@@]3(CF)N=C(N)O[C@@H]4C[C@@H](C)OC[C@@H]43)c2)cn1 [Compound I-068]
6 | 123 | 7.93 | 5.84 | COc1cnc(C(=O)Nc2ccc(F)c([C@@]3(CF)N=C(N)O[C@@H]4C[C@@H](C)OC[C@@H]43)c2)cn1 [Compound I-069]
7 | 36.3 | 8.37 | 6.81 | C[C@H]1COC[C@H]2[C@@H]1OC(N)=N[C@]2(CF)c1cc(NC(=O)c2cnc(OCF)cn2)ccc1F [Compound I-074]
8 | 27.5 | 7.59 | 6.14 | C[C@@H]1COC[C@H]2[C@@H]1OC(N)=N[C@]2(CF)c1cc(NC(=O)c2cnc(OCF)cn2)ccc1F [Compound I-075]
9 | 223 | 8.09 | 5.74 | NC1=N[C@](CF)(c2cc(NC(=O)c3cnc(OCC(F)(F)F)cn3)ccc2F)[C@H]2COCC[C@H]2O1 [Compound I-077]
10 | 25.1 | 8.01 | 6.61 | NC1=N[C@](CF)(c2cc(NC(=O)c3ccc(OC(F)F)cn3)ccc2F)[C@H]2COCC[C@H]2O1 [Compound I-078]
11 | 52.7 | 7.73 | 6.00 | NC1=N[C@](CF)(c2cc(NC(=O)c3cnc(OCC(F)F)cn3)ccc2F)[C@H]2COCC[C@H]2O1 [Compound I-079]
12 | 53.7 | 8.00 | 6.27 | NC1=N[C@](CF)(c2cc(NC(=O)c3cnc(OCC4(F)CC4)cn3)ccc2F)[C@H]2COCC[C@H]2O1 [Compound I-086]
13 | 11.2 | 7.26 | 6.21 | C[C@@H]1C[C@H]2OC(N)=N[C@](CF)(c3cc(NC(=O)c4cnc(C(F)F)cn4)ccc3F)[C@H]2CO1 [Compound I-088]
14 | 56.2 | 8.01 | 6.26 | C[C@@H]1C[C@H]2OC(N)=N[C@](CF)(c3cc(NC(=O)c4cnc(OC(F)F)cn4)ccc3F)[C@H]2CO1 [Compound I-089]
15 | 70.8 | 8.23 | 6.38 | CC[C@@H]1OCC[C@H]2OC(N)=N[C@](CF)(c3cc(NC(=O)c4cnc(OC(F)F)cn4)ccc3F)[C@@H]12 [Compound I-094]
16 | 28.8 | 7.72 | 6.26 | C[C@@H]1C[C@H]2OC(N)=N[C@](CF)(c3cc(NC(=O)c4ccc(C(F)(F)F)cn4)ccc3F)[C@H]2CO1 [Compound I-099]
17 | 15.5 | 7.78 | 6.59 | Cc1cc(C(F)(F)F)cnc1C(=O)Nc1ccc(F)c([C@@]2(CF)N=C(N)O[C@@H]3C[C@@H](C)OC[C@@H]32)c1 [Compound I-100]
18 | 14.1 | 7.55 | 6.40 | C[C@@H]1C[C@H]2OC(N)=N[C@](CF)(c3cc(NC(=O)c4ncc(C(F)(F)F)cc4Cl)ccc3F)[C@H]2CO1 [Compound I-101]
19 | 28.8 | 7.47 | 6.01 | NC1=N[C@](CF)(c2cc(NC(=O)c3cnc(C(F)(F)F)cn3)ccc2F)[C@H]2COCC[C@H]2O1 [Compound I-102]
20 | 14.5 | 7.66 | 6.50 | NC1=N[C@](CF)(c2cc(NC(=O)c3cnc(C(F)F)cn3)ccc2F)[C@H]2COCC[C@H]2O1 [Compound I-103]
21 | 27.5 | 7.84 | 6.40 | [2H]C([2H])([2H])Oc1cnc(C(=O)Nc2ccc(F)c([C@@]3(CF)N=C(N)O[C@@H]4CCOC[C@@H]43)c2)cn1 [Compound I-104]
22 | 10.2 | 7.85 | 6.83 | Cc1cc(C(F)(F)F)cnc1C(=O)Nc1ccc(F)c([C@@]2(CF)N=C(N)O[C@@H]3CCOC[C@@H]32)c1 [Compound I-106]
23 | 63.1 | 7.27 | 5.47 | NC1=N[C@](CF)(c2cc(NC(=O)c3cnc(C(F)(F)F)cn3)ccc2F)[C@H]2COCC[C@H]2O1 [Compound I-107]
24 | 10.0 | 7.70 | 6.70 | NC1=N[C@](CF)(c2cc(NC(=O)c3ncc(C(F)(F)F)cc3Cl)ccc2F)[C@H]2COCC[C@H]2O1 [Compound I-108]
25 | 18.6 | 7.65 | 6.38 | CCOc1cnc(C(=O)Nc2ccc(F)c([C@@]3(CF)N=C(N)O[C@@H]4CCOC[C@@H]43)c2)cn1 [Compound I-109]
26 | 44.7 | 7.66 | 6.01 | NC1=N[C@](CF)(c2cc(NC(=O)c3cnc(OCF)cn3)ccc2F)[C@H]2COC3(CC3)C[C@H]2O1 [II-1]
